# Test system: Heliothis armigera
# Assay: Heliothis armigera test (soybean shoots dipped)
# Type: in vivo
# Settings: 0.00128 ppm, 6 d
# Description: (§1) To produce a suitable preparation of active compound, 1 part by weight of active compound is mixed with the stated amounts of solvent and emulsifier, and the concentrate is diluted with emulsifier-containing water to the desired concentration.
# Soybean shoots (Glycine max) are treated by being dipped into the preparation of active compound of the desired concentration and are populated with caterpillars of the cotton bollworm (Heliothis armigera) while the leaves are still moist.
# (§2) After the desired period of time, the kill in % is determined. 100% means that all caterpillars have been killed; 0% means that none of the caterpillars have been killed. The determined kill ratios are entered into Colby's formula (see page 39).
row,Compound,Kill rate in % after 6d found
1,"emamectin [(2-9) emamectin, reference compound]",0%

# Same assay, conditions: 0.8 ppm, 6 d
row,Compound,Kill rate in % after 6d found
1,"O=C(NC(=O)c1ccccc1Cl)Nc1ccc(OC(F)(F)F)cc1 [(2-5) triflumuron, triflumuron, reference compound]",0%

# Same assay, conditions: 4 ppm, 3 d
row,Compound,Kill rate in % after 3d found
1,"COc1cccc(C(=O)NN(C(=O)c2cc(C)cc(C)c2)C(C)(C)C)c1C [(2-10) methoxyfenozide, methoxyfenozide, reference compound]",0%

# Test system: not given
# Assay: not given
# Settings: not given
row,melting point,Compound
1,200 to 201 °C,CC(C)NC(=O)c1cc(Cl)cc(Cl)c1NC(=O)c1cc(C(F)(F)F)nn1-c1ncccc1Cl
2,232 to 235 °C,CC(C)NC(=O)c1cc(Cl)cc(Cl)c1NC(=O)c1cc(OCC(F)(F)F)nn1-c1ncccc1Cl
3,197 to 199 °C,CC(C)NC(=O)c1cc(Cl)cc(Cl)c1NC(=O)c1cc(Cl)nn1-c1ncccc1Cl
4,188 to 190 °C,CC(C)NC(=O)c1cc(Cl)cc(Cl)c1NC(=O)c1cc(Br)nn1-c1ncccc1Cl
5,163 to 164 °C,CCNC(=O)c1cc(Cl)cc(C)c1NC(=O)c1cc(C(F)(F)F)nn1-c1ncccc1Cl
6,205 to 207 °C,CCNC(=O)c1cc(Cl)cc(C)c1NC(=O)c1cc(OCC(F)(F)F)nn1-c1ncccc1Cl
7,199 to 200 °C,CCNC(=O)c1cc(Cl)cc(C)c1NC(=O)c1cc(Cl)nn1-c1ncccc1Cl
8,207 to 208 °C,CNC(=O)c1cc(Cl)cc(C)c1NC(=O)c1cc(OCC(F)(F)F)nn1-c1ncccc1Cl
9,194 to 195 °C,CCNC(=O)c1cc(Cl)cc(C)c1NC(=O)c1cc(Br)nn1-c1ncccc1Cl
10,201 to 202 °C,CCNC(=O)c1cc(Cl)cc(Cl)c1NC(=O)c1cc(C(F)(F)F)nn1-c1ncccc1Cl
11,206 to 208 °C,CCNC(=O)c1cc(Cl)cc(Cl)c1NC(=O)c1cc(Cl)nn1-c1ncccc1Cl
12,214 to 215 °C,CCNC(=O)c1cc(Cl)cc(Cl)c1NC(=O)c1cc(Br)nn1-c1ncccc1Cl
13,223 to 225 °C,Cc1cc(Cl)cc(C(=O)NC(C)(C)C)c1NC(=O)c1cc(C(F)(F)F)nn1-c1ncccc1Cl
14,170 to 172 °C,CC(C)(C)NC(=O)c1cc(Cl)cc(Cl)c1NC(=O)c1cc(C(F)(F)F)nn1-c1ncccc1Cl
15,172 to 173 °C,CC(C)(C)NC(=O)c1cc(Cl)cc(Cl)c1NC(=O)c1cc(Cl)nn1-c1ncccc1Cl
16,179 to 180 °C,CC(C)(C)NC(=O)c1cc(Cl)cc(Cl)c1NC(=O)c1cc(Br)nn1-c1ncccc1Cl
17,222 to 223 °C,CNC(=O)c1cc(Br)cc(C)c1NC(=O)c1cc(C(F)(F)F)nn1-c1ncccc1Cl
18,192 to 193 °C,CCNC(=O)c1cc(Br)cc(C)c1NC(=O)c1cc(C(F)(F)F)nn1-c1ncccc1Cl
19,199 to 200 °C,CNC(=O)c1cc(I)cc(C)c1NC(=O)c1cc(C(F)(F)F)nn1-c1ncccc1Cl
20,199 to 200 °C,CCNC(=O)c1cc(I)cc(C)c1NC(=O)c1cc(C(F)(F)F)nn1-c1ncccc1Cl
21,188 to 189 °C,Cc1cc(I)cc(C(=O)NC(C)C)c1NC(=O)c1cc(C(F)(F)F)nn1-c1ncccc1Cl
22,155 to 157 °C,CNC(=O)c1cc(Cl)cc(Cl)c1NC(=O)c1cc(C(F)(F)F)nn1-c1ncccc1Cl
23,162 to 163 °C,CNC(=O)c1cc(Br)cc(Br)c1NC(=O)c1cc(C(F)(F)F)nn1-c1ncccc1Cl
24,188 to 189 °C,CCNC(=O)c1cc(Br)cc(Br)c1NC(=O)c1cc(C(F)(F)F)nn1-c1ncccc1Cl
25,192 to 193 °C,CC(C)NC(=O)c1cc(Br)cc(Br)c1NC(=O)c1cc(C(F)(F)F)nn1-c1ncccc1Cl
26,192 to 195 °C,CNC(=O)c1cc(Cl)cc(Cl)c1NC(=O)c1cc(OCC(F)(F)F)nn1-c1ncccc1Cl
27,143 to 145 °C,CC(C)(C)NC(=O)c1cc(Br)cc(Cl)c1NC(=O)c1cc(C(F)(F)F)nn1-c1ncccc1Cl
28,205 to 206 °C,CNC(=O)c1cc(Cl)cc(Cl)c1NC(=O)c1cc(Cl)nn1-c1ncccc1Cl
29,225 to 227 °C,CN(C)C(=O)c1cc(Cl)cc(Cl)c1NC(=O)c1cc(C(F)(F)F)nn1-c1ncccc1Cl
30,245 to 246 °C,CNC(=O)c1cc(Cl)cc(Cl)c1NC(=O)c1cc(Br)nn1-c1ncccc1Cl

# More lines, now with the values behind:
row,Compound,melting point
1,Cc1cc(Cl)cc(C(=O)NC(C)C)c1NC(=O)c1cc(OCC(F)(F)F)nn1-c1ncccc1Cl,217 to 218 °C
2,Cc1cc(Cl)cc(C(=O)NC(C)(C)C)c1NC(=O)c1cc(Cl)nn1-c1ncccc1Cl,163 to 165 °C
3,Cc1cc(Cl)cc(C(=O)NC(C)(C)C)c1NC(=O)c1cc(Br)nn1-c1ncccc1Cl,159 to 161 °C
4,CNC(=O)c1cc(Cl)cc(C)c1NC(=O)c1cc(Cl)nn1-c1ncccc1Cl,225 to 226 °C
5,Cc1cc(Br)cc(C(=O)NC(C)C)c1NC(=O)c1cc(C(F)(F)F)nn1-c1ncccc1Cl,197 to 198 °C
6,Cc1cc(Br)cc(C(=O)NC(C)(C)C)c1NC(=O)c1cc(C(F)(F)F)nn1-c1ncccc1Cl,247 to 248 °C
7,CNC(=O)c1cc(Br)cc(C)c1NC(=O)c1cc(Cl)nn1-c1ncccc1Cl,140 to 141 °C
8,CCNC(=O)c1cc(Br)cc(C)c1NC(=O)c1cc(Cl)nn1-c1ncccc1Cl,192 to 194 °C
9,Cc1cc(Br)cc(C(=O)NC(C)C)c1NC(=O)c1cc(Cl)nn1-c1ncccc1Cl,152 to 153 °C
10,Cc1cc(Br)cc(C(=O)NC(C)(C)C)c1NC(=O)c1cc(Cl)nn1-c1ncccc1Cl,224 to 225 °C
11,CNC(=O)c1cc(Br)cc(C)c1NC(=O)c1cc(Br)nn1-c1ncccc1Cl,147 to 149 °C
12,CCNC(=O)c1cc(Br)cc(C)c1NC(=O)c1cc(Br)nn1-c1ncccc1Cl,194 to 196 °C
13,Cc1cc(Br)cc(C(=O)NC(C)C)c1NC(=O)c1cc(Br)nn1-c1ncccc1Cl,185 to 187 °C
14,Cc1cc(Br)cc(C(=O)NC(C)(C)C)c1NC(=O)c1cc(Br)nn1-c1ncccc1Cl,215 to 221 °C
15,Cc1cc(I)cc(C(=O)NC(C)(C)C)c1NC(=O)c1cc(C(F)(F)F)nn1-c1ncccc1Cl,242 to 243 °C
16,CNC(=O)c1cc(I)cc(C)c1NC(=O)c1cc(Cl)nn1-c1ncccc1Cl,233 to 234 °C
17,CCNC(=O)c1cc(I)cc(C)c1NC(=O)c1cc(Cl)nn1-c1ncccc1Cl,196 to 197 °C
18,Cc1cc(I)cc(C(=O)NC(C)C)c1NC(=O)c1cc(Cl)nn1-c1ncccc1Cl,189 to 190 °C

row,Compound,melting point
1,Cc1cc(I)cc(C(=O)NC(C)(C)C)c1NC(=O)c1cc(Cl)nn1-c1ncccc1Cl,228 to 229 °C
2,CNC(=O)c1cc(I)cc(C)c1NC(=O)c1cc(Br)nn1-c1ncccc1Cl,229 to 230 °C
3,Cc1cc(I)cc(C(=O)NC(C)C)c1NC(=O)c1cc(Br)nn1-c1ncccc1Cl,191 to 192 °C
4,CC(C)(C)NC(=O)c1cc(Br)cc(Br)c1NC(=O)c1cc(C(F)(F)F)nn1-c1ncccc1Cl,246 to 247 °C
5,CNC(=O)c1cc(Br)cc(Br)c1NC(=O)c1cc(Cl)nn1-c1ncccc1Cl,188 to 190 °C
6,CCNC(=O)c1cc(Br)cc(Br)c1NC(=O)c1cc(Cl)nn1-c1ncccc1Cl,192 to 194 °C
7,CC(C)NC(=O)c1cc(Br)cc(Br)c1NC(=O)c1cc(Cl)nn1-c1ncccc1Cl,197 to 199 °C
8,CC(C)(C)NC(=O)c1cc(Br)cc(Br)c1NC(=O)c1cc(Cl)nn1-c1ncccc1Cl,210 to 212 °C
9,CNC(=O)c1cc(Br)cc(Br)c1NC(=O)c1cc(Br)nn1-c1ncccc1Cl,166 to 168 °C
10,CCNC(=O)c1cc(Br)cc(Br)c1NC(=O)c1cc(Br)nn1-c1ncccc1Cl,196 to 197 °C
11,CC(C)NC(=O)c1cc(Br)cc(Br)c1NC(=O)c1cc(Br)nn1-c1ncccc1Cl,162 to 163 °C
12,CC(C)(C)NC(=O)c1cc(Br)cc(Br)c1NC(=O)c1cc(Br)nn1-c1ncccc1Cl,194 to 196 °C
13,CN(C)C(=O)c1cc(Br)cc(Br)c1NC(=O)c1cc(Cl)nn1-c1ncccc1Cl,153 to 155 °C
14,Cc1cc(Br)cc(C(=O)N(C)C)c1NC(=O)c1cc(C(F)(F)F)nn1-c1ncccc1Cl,207 to 208 °C
15,CN(C)C(=O)c1cc(Cl)cc(Cl)c1NC(=O)c1cc(Cl)nn1-c1ncccc1Cl,231 to 232 °C
16,CN(C)C(=O)c1cc(Br)cc(Br)c1NC(=O)c1cc(Br)nn1-c1ncccc1Cl,189 to 190 °C
17,CN(C)C(=O)c1cc(Cl)cc(Cl)c1NC(=O)c1cc(Br)nn1-c1ncccc1Cl,216 to 218 °C
18,CN(C)C(=O)c1cc(Br)cc(Br)c1NC(=O)c1cc(C(F)(F)F)nn1-c1ncccc1Cl,228 to 229 °C

# Test system: Plutella xylostella, resistant strain
# Assay: Plutella xylostella test (resistant strain)
# Type: in vivo
# Settings: 0.00128 ppm, 6 d
# Description: as §1
# Cabbage leaves (Brassica oleracea) are treated by being dipped into the preparation of active compound of the desired concentration and are populated with caterpillars of the diamondback moth (Plutella xylostella, resistant strain) while the leaves are still moist.
# as §2
row,Compound,Kill rate in % after 6d found
1,"emamectin [(2-9) emamectin, reference compound]",40%

# Test system: Spodoptera exigua
# Assay: Spodoptera exigua test (cabbage leaves dipped)
# Type: in vivo
# Settings: 0.8 ppm
# Description: as §1
# Cabbage leaves (Brassica oleracea) are treated by being dipped into the preparation of active compound of the desired concentration and are populated with caterpillars of the beet army worm (Spodoptera exigua) while the leaves are still moist.
# as §2
row,Compound,Kill rate in % after 6d found
1,"O=C(NC(=O)c1c(F)cccc1F)Nc1ccc(Oc2ccc(C(F)(F)F)cc2Cl)cc1F [(2-22) flufenoxuron, flufenoxuron, reference compound]",10%

# Test system: Plutella xylostella, normally sensitive strain
# Assay: Plutella xylostella test (normally sensitive strain)
# Type: in vivo
# Settings: 20 ppm, 4 d
# Description: as §1
# Cabbage leaves (Brassica oleracea) are treated by being dipped into the preparation of active compound of the desired concentration and are populated with caterpillars of the diamondback moth (Plutella xylostella, normally sensitive strain) while the leaves are still moist.
# as §2
row,Compound,Kill rate in % after 4d found
1,"O=C(NC(=O)c1ccccc1Cl)Nc1ccc(OC(F)(F)F)cc1 [(2-5) triflumuron, triflumuron, reference compound]",60%

# From US8735431B2, “Active compound combinations having insecticidal properties” (priority 2003, dated 2014)
